Data on 8 substances can be found in article PMC3150281, “Two Group A Streptococcal Peptide Pheromones Act through Opposing Rgg Regulators to Control Biofilm Development” (PLoS Pathogens, 2011).

The test system of data set [1] is Rgg3 (Streptococcus pyogenes NZ131 (serotype M49)). Put plainly: EMSA. The note with it: 20 mM HEPES pH 7.9, 100 mM KCl, 12.5 mM MgCl2, 0.2 mM EDTA, 0.5 mM DTT, 0.5 mM CaCl2, 50 ug/mL salmon sperm DNA, 0.001 U/uL poly(dI-dC), 100 ug/mL BSA, 12% …. A general note: Mobility shift assays separate free from complexed probe on a gel.
The next data set concerns Pshp3 luxAB reporter. In words: Luciferase reporter assay, Pshp3-luxAB, with synthetic peptides. The data set is classed as cell-based, Streptococcus pyogenes NZ131. The note with it: for Induction of luciferase activity at Pshp3 / Induction of luciferase at Pshp3 in wild-type bacteria: 50 nM peptide in CDM; for Induction of luciferase activity at Pshp3: crude peptide (31-50% pure), DMSO vehicle control, representative of at least three experiments; for Induction of luciferase at Pshp3 in wild-type bacteria: wild-type reporter strain JCC174 (mutated shp3 start codon); for Response at Pshp3 in Δrgg2 strain: Δrgg2 reporter strain JCC175. The procedure: (§1) Figure 3 SHP stimulation of luciferase production. For panels A and C, overnight GAS cultures were diluted into CDM and followed for growth and light production over time. For panels B and D-H, reporter strains were grown to log-phase (OD600 between 0.3 and 0.5) and then diluted 13-fold into conditioned (panel B) or fresh CDM containing 50 nM of the indicated peptide (panels D-H). For all synthetic peptide experiments, DMSO was included as a vehicle control. Data shown are representative of at least three independent experiments. (A) Expression of shp3 under its own promoter from a multi-copy plasmid (pSHP3) induces luciferase expression at both Pshp2 (triangles) and Pshp3 (squares); pLZ12-Sp is the vector-only control. (B) Luciferase-inducing activity is present in a cell-free culture supernatant prepared from mid-log phase Δrgg3 donor (JCC131) but not in wild-type (NZ131) or Δrgg3-shp3 (JCC132)-conditioned supernatants; Δrgg3-shp3 (JCC159) was used as the reporter strain, and fresh medium was included as a control. (C) Luciferase activity of a Δrgg3-shp3 strain (JCC168) expressing truncated versions of shp3 indicates the importance of the C-terminus. All truncation plasmids were derived from pSHP3; pSHP3_17-23 includes a methionine to initiate translation. (D) Synthetic full-length (sSHP3) and C-terminal eight amino acids (sSHP3-C8), but not reverse peptide (sSHP3-rev), induce luciferase activity in a Δrgg3-shp3 reporter strain (JCC168). (E) Amino acid substitutions within the C-terminus of SHP3 alter its reporter-inducing activity in a Δrgg3-shp3 reporter strain (JCC168). sSHP3-C8: DIIIIVGG; the sequences of synthetic peptides with amino acids substitutions are shown in the panel legend. […] Reverse peptide (sSHP2-C8-rev) was included as a control. (G) sSHP3-C8 induces a sustained response from the Pshp2 reporter in the wild-type strain (BNL148), while luciferase activity of a Δrgg3-shp3 strain (BNL150) wanes. (H) Synthetic C8 peptides stimulate modest luciferase activity in Δrgg2 strains with integrated Pshp2 (solid lines; BNL152) or Pshp3 (dotted lines; JCC175) reporters.
(§2) For luciferase assays, isolated colonies from the strains of interest were picked from a freshly streaked plate, inoculated into THY broth and grown overnight at 30°C. In the morning, cells were diluted 100-fold into CDM and incubated at 37°C. At each time point, 50 µL of each culture was removed to an opaque 96-well plate, samples were exposed to decyl aldehyde (Sigma) fumes for one minute, and counts per second (CPS) were quantified using a Wallac 1450 microbeta scintillation counter; the optical density (OD) at 600 nm was also measured at each time point. Relative light units (RLU) were calculated by normalizing CPS to OD. For the conditioned media experiment, strains of interest were grown in CDM to an OD of 0.3 to 0.5, cells were spun down, and supernatants were passed through a 0.22 µm filter; log-phase Δrgg3-shp3 reporter cells (JCC159) were diluted 1∶12 into conditioned supernatants, and light activity and OD were monitored as described above. For experiments with synthetic peptides, reporter strains were grown to an OD of 0.3 to 0.5 and then diluted into fresh CDM containing the peptide of interest, and light activity and OD were monitored as described above.
Synthetic peptides were purchased from Neo-Peptide (Cambridge, MA). Purities of crude preparations used in luciferase assays ranged from 31% to 50%. 95% pure preparations were used for electrophoretic mobility shift assays (EMSA) as described below. All peptides were reconstituted as 2 mM stocks in DMSO and stored in aliquots at -80°C. Subsequent dilutions for working stocks (50 µM) were made in DMSO and stored at −20°C.
On the technique in general: Reporter assays use an easily measured gene product as a stand-in for the process of interest.

A further data set has as its system Pshp2 luxAB reporter. In words: Luciferase reporter assay, Pshp2-luxAB, with synthetic peptides. The data set is classed as cell-based, Streptococcus pyogenes NZ131. The conditions noted are these: for Induction of luciferase at Pshp2 in wild-type bacteria: wild-type reporter strain BNL148, 50 nM peptide in CDM; for Maximal induction at Pshp2 in Δrgg2 strain: Δrgg2 reporter strain BNL152. The procedure:
as §1, §2
Synthetic peptides were purchased from Neo-Peptide (Cambridge, MA). Purities of crude preparations used in luciferase assays ranged from 31% to 50%. […]

A further data set relates to Rgg3-Pshp3 DNA complex. Put plainly: EMSA, effect of peptide on Rgg3 binding to Pshp3 probe. The arrangement: species or system Streptococcus pyogenes NZ131. The conditions noted are these: 2 µM pure (>95%) peptide added 20 min after 10 nM FAM probe; room temperature; native PAGE. On the procedure: (§3) The NZ131 rgg3 gene (Spy 49_0449c) was amplified using gene-specific primers (rgg3_fwd_NdeI/rgg3_rev_BamHI) and cloned into a modified pET expression vector bearing N-terminal His-6 and SUMO tags; the resulting vector, pCA102, was electroporated into E. coli C41(DE3) before each purification. Expression of His6-sumo-rgg3 was induced at an OD600 of 0.8 with 0.5 mM IPTG for six hours at 30°C. Cells were pelleted and suspended in Buffer A (20 mM sodium phosphate buffer, pH 7.5; 1.5 mM MgCl2, 280 mM NaCl, 20 mM imidazole, 10 mM β-mercaptoethanol) with 0.1 mg mL^−1 lysozyme, 0.01 mg mL^−1 DNaseI (Sigma) and Complete EDTA-free protease inhibitor (Roche). Cells were disrupted by sonication on ice, and cellular debris was removed by centrifugation at 45,000 x g for 20 min at 4°C. His6-SUMO-Rgg3 was adsorbed to a HisTrap-HP Nickel column (GE Biosciences), then washed with 50 mM imidazole and eluted with 300 mM imidazole. The eluate was immediately exchanged into fresh Buffer A using a Zeba spin desalting column, 7K MWCO (Thermo Scientific). […]
(§4) All DNA fragments for EMSAs were amplified from chromosomal NZ131 DNA by PCR using primers described in Table S1, with select primers containing 5′-FAM fluorescent tags (Integrated DNA Technologies). […] All gel shifts were detected by fluorescence imaging using a Typhoon PhosphorImager (GE Life Sciences).

The subject of another data set is Rgg3-Pshp2 DNA complex. In words: EMSA, effect of peptide on Rgg3 binding to Pshp2 probe. The arrangement: species or system Streptococcus pyogenes NZ131. The conditions noted are these: 2 µM pure (>95%) peptide added 20 min after 10 nM FAM probe; room temperature; native PAGE. On the procedure:
as §3, §4

For data set [2], the system named is GAS NZ131 biofilm biomass. In words: Biofilm assay, crystal violet staining. The note with it: 50 nM peptide. In kind it is cell-based, Streptococcus pyogenes NZ131. The procedure:
Figure 6 Influence of Rgg regulators on biofilm production. SHPs can enhance biofilm biogenesis via the Rgg2/3 regulatory circuit and counter biofilm disassembly promoted by RopB. Crystal violet staining was performed to measure biofilm biomass of NZ131 derivatives grown 48 hours in 24-well polystyrene plates with (dark gray bars) or without (light gray bars) the addition of 50 nM sSHP3-C8. Levels of biofilm production were normalized to that of untreated NZ131 (wild type). Error bars indicate standard error from a minimum of three independent experiments.
Assays were performed as described by Manetti et al, with slight modifications. Briefly, each strain was grown overnight in THY at 30°C, diluted 1∶10 into fresh CDM, and 0.5 mL volumes were aliquoted to three separate wells of a 24-well polystyrene plate. When indicated, synthetic peptide was added to a final concentration of 50 nM. Plates where incubated at 37°C with 5% CO2 for 24 hours, then wells were washed with PBS and fresh CDM (containing peptide, if appropriate) was added. After an additional 24 hours of growth, each well was washed three times with PBS and stained with 0.2% crystal violet for 10 min. Excess crystal violet was aspirated off, and biofilms were washed three times with PBS. The biomass was then suspended in 1% SDS, and the absorbance at 540 nm was measured. Each strain was tested a minimum of three independent times on separate days, and each trial included NZ131 as the reference strain.

Setting [3] is: Δrgg3-shp3 reporter strain JCC168.

In data set [1], Pshp3 probe returned a K half of 100 nM.
For “-IIIIVGG [sSHP3-C8 without the N-terminal aspartic acid]”, in the data set with Pshp3 luxAB reporter (setting [3]), the “Induction of luciferase activity at Pshp3” value is on record as “complete loss of luciferase activity”.
“DIIIIVG- [sSHP3-C8 without the C-terminal glycine]”: in the data set with Pshp3 luxAB reporter (setting [3]), the “Induction of luciferase activity at Pshp3” value is “significantly decreased light activity”.
On the same count and under the same terms, next, “NIIIIVGG [sSHP3-C8 with aspartic acid replaced by asparagine]”: “decreased activity”.
Regarding “sSHP2-C8: synthetic C-terminal eight amino acids of SHP2 (DILIIVGG)”, in the data set on Pshp3 luxAB reporter, the “Induction of luciferase at Pshp3 in wild-type bacteria” value was “stimulate induction and cross-induction”. Also, the “Response at Pshp3 in Δrgg2 strain” value in the data set on Pshp3 luxAB reporter (50 nM peptide) is reported as “no response”. Further, the “Induction of luciferase at Pshp2 in wild-type bacteria” value in the data set with Pshp2 luxAB reporter is “stimulate induction and cross-induction”. Further, the “Maximal induction at Pshp2 in Δrgg2 strain” value with Pshp2 luxAB reporter (50 nM peptide) was 7 fold. Further, the “Disruption of Rgg3 binding to Pshp3 DNA” value in the data set on Rgg3-Pshp3 DNA complex is reported as “only induced a small amount of disruption”. For the same substance, the “Disruption of Rgg3 binding to Pshp2 DNA” value with Rgg3-Pshp2 DNA complex was “only induced a small amount of disruption”.
On to “DIIIIVGG [sSHP3-C8, synthetic peptide containing the C-terminal eight amino acids of SHP3 (DIIIIVGG)]”, for which, in the data set with Pshp3 luxAB reporter, the “Induction of luciferase at Pshp3 in wild-type bacteria” value was “stimulate induction and cross-induction”. In the data set with Pshp3 luxAB reporter (ΔoppD reporter strain JCC163, 50 nM peptide, response restored by pOppD), the “Response of Pshp3 reporter in ΔoppD mutant” value is given as “fails to respond”. For the same substance, the “Response at Pshp3 in Δrgg2 strain” value with Pshp3 luxAB reporter (50 nM peptide) is on record as “no response”. The “Induction of luciferase activity at Pshp3” value with Pshp3 luxAB reporter (setting [3]) is recorded as “Luciferase induction was also observed”. Also, the “Reporter induction relative to sSHP3 at identical molar concentrations” value in the data set with Pshp3 luxAB reporter (Δrgg3-shp3 reporter strain JCC168, Pshp3, 50 nM peptide) was “more than 10 fold”. Further, in data set [2] (48 hours in CDM, 24-well polystyrene plates, normalized to untreated NZ131, minimum of three experiments), the “Biofilm formation, wild-type NZ131” value was “two-fold increase”. Besides, the “Biofilm production, ΔoppD mutant” value in data set [2] (ΔoppD (JCC135), 48 hours, crystal violet) is reported as “could not stimulate biofilms”. Besides, in data set [2] (Δrgg2 (JCC137), 48 hours, crystal violet), the “Biofilm production, Δrgg2 mutant” value was “could not stimulate biofilms”. In data set [2] (Δrgg3 (JCC131), 48 hours, crystal violet), the “Biofilm production, Δrgg3 mutant” value is on record as “did not further enhance biofilms”. In addition, in data set [2] (Δrgg3-shp3 (JCC132), 48 hours, crystal violet), the “Biofilm production, Δrgg3-shp3 mutant” value is recorded as “partially complemented”. The “Biofilm biomass, ΔropB strain” value in data set [2] (ΔropB (BNL146), 48 hours, crystal violet) is on record as “increased six-fold”. Moreover, in the data set with Pshp2 luxAB reporter, the “Induction of luciferase at Pshp2 in wild-type bacteria” value was “stimulate induction and cross-induction”. Moreover, the “Maximal induction at Pshp2 in Δrgg2 strain” value with Pshp2 luxAB reporter (50 nM peptide) is roughly 40 fold. The “Luciferase activity at Pshp2 over time in Δrgg3-shp3 strain” value in the data set with Pshp2 luxAB reporter (Δrgg3-shp3 reporter strain BNL150, 50 nM peptide, compared with wild type BNL148) was “wanes”. For the same substance, the “Disruption of Rgg3 binding to Pshp3 DNA” value with Rgg3-Pshp3 DNA complex is given as “Rgg3-DNA complexes were disrupted”. For the same substance, the “Disruption of Rgg3 binding to Pshp2 DNA” value in the data set with Rgg3-Pshp2 DNA complex is given as “Rgg3-DNA complexes were disrupted”.
For the substance “EIIIIVGG [sSHP3-C8 with aspartic acid substituted by glutamate]”, the “Induction of luciferase activity at Pshp3” value in the data set on Pshp3 luxAB reporter (setting [3]) is reported as “retained full activity”.
In data set [1], Pshp2 probe displayed a K half of 100 nM.
